Measurements reported in US5120835A, “Saccharide derivatives of protocatechualdehyde” (Kureha Chemical Industry Co., Ltd., priority 1989, dated 1992).
Read-outs that look alike come from different tables or passages of the source.

Assays:
[1] = tested on: granuloma growth; test: Granuloma growth inhibiting effect (paper disk implanted subcutaneously in rats); type: in vivo, male Donryu rats; settings: oral, 10 days; for Granuloma Dry weight (mean): control 131.9 mg
Description: Effects of inhibiting granuloma growth were investigated by the method proposed by Fujimura et al. [Oyo Yakuri, 19 (3), 329 (1980)], using five-week old male Donryu rats. As paper disks, filter papers measuring 13 mm.0. and 28 mg and soaked in […] CMC solution (containing 0.1 mg/ml of 1 million unit dihydroxystreptomycin and penicillin, respectively) were used. A paper disk was implanted subcutaneously in the back of the rat under anesthesia. The test drugs dispersed in 0.3% CMC solutions were administered orally for 10 days; then, on the 11th day the granulomas were removed and their weights were measured. To the control group were administered the original 0.3% CMC solution containing no test drug.

[2] = Acute toxicity in mice (LD50, Litchfield-Wilcoxon method); settings: mouse, in vivo, Jcl:ICR female mice, observed for 7 days
Description: The prescribed amounts of the test drugs dispersed in 0.3% CMC aqueous solution at a rate of 20 mg/ml for oral administration and the test drugs dissolved in 10% ethanol isotonic sodium chloride solution as a rate of 200 mg/ml for intraperitoneal administration were applied using gastric probes and syringes, respectively.

[3] = tested on: male mice; settings: DRUGS IN JAPAN (ETHICAL DRUGS), 9th Edition (1985), p.105; cited from earlier work
[4] = Toxicity compared in words; type: in vivo; settings: from LD50 of reference against LD50 of Table 1
[5] = tested on: male rats; settings: DRUGS IN JAPAN (ETHICAL DRUGS), 9th Edition (1985), p.105; cited from earlier work
[6] = tested on: leukocytic migration; settings: in vitro, low concentration level; cited from earlier work
[7] = tested on: blood platelet agglutination; settings: in vitro, low concentration level; cited from earlier work
[8] = in vivo; cited from earlier work
[9] = ip, intraperitoneal, dissolved in 10% ethanol isotonic sodium chloride solution, read-out: LD50, Intraperitoneal Administration
[10] = oral, dispersed in 0.3% CMC aqueous solution, read-out: LD50, Oral Administration

Row | Compound | Granuloma Inhibition rate ([1]; 10 mg/kg/day) | Granuloma Dry weight (mean) ([1]; 10 mg/kg/day) | Granuloma Inhibition rate ([1]; 50 mg/kg/day) | Granuloma Dry weight (mean) ([1]; 50 mg/kg/day) | LD50 at 168 h [2, 9] | LD50 at 168 h [2, 10] | LD50 value [3] | Toxicity compared with PAL and the compounds of the present invention (in words) [4] | Granuloma Inhibition rate ([1]; 3 mg/kg/day) | Granuloma Dry weight (mean) ([1]; 3 mg/kg/day) | LD50 value [5] | Inhibiting leukocytic migration (in words) [6] | Inhibiting blood platelet agglutination (in words) [7] | Metabolic rate (in words) [8]
1 | CO[C@H]1O[C@@H]2COC(c3ccc(OC(=O)c4ccccc4)c(OC(=O)c4ccccc4)c3)O[C@H]2[C@H](O)[C@H]1O (stereo partly drawn) [Ia1, Methyl-4,6-O-(3',4'-dibenzoyloxybenzylidene)-α-D-glucopyranoside] | 29.8% | 92.6 mg | 43.7% | 74.3 mg | 1900 mg/kg | > 4000 mg/kg | – | – | – | – | – | – | – | –
2 | CO[C@H]1O[C@@H]2COC(c3ccc(O)c(O)c3)O[C@H]2[C@H](O)[C@H]1O (stereo partly drawn) [Ib1, Methyl-4,6-O-(3',4'-dihydroxybenzylidene)-α-D-glucopyranoside] | 30.7% | 91.4 mg | 50.0% | 66.0 mg | > 3000 mg/kg | > 4000 mg/kg | – | – | – | – | – | – | – | –
3 | COc1ccc2c(c1)c(CC(=O)O)c(C)n2C(=O)c1ccc(Cl)cc1 [Indomethacin, indomethacin] | – | – | – | – | – | – | 30.2 mg/kg | more toxic than both PAL and the compounds of the present invention | 45.9% | 71.3 mg | 29 mg/kg | – | – | –
4 | O=Cc1ccc(O)c(O)c1 [PAL, protocatechualdehyde] | – | – | 34.2% | 86.8 mg | – | – | – | – | – | – | – | shows a suitable effect | shows a suitable effect | higher metabolic rate
